Measured values published in PMC3605428, “A Readily Applicable Strategy to Convert Peptides to Peptoid-based Therapeutics” (PLoS ONE, 2013).
Non-standard residues stand in square brackets, D forms with d. No end group written: not given here. Sar = CNCC(=O)O

System: 5-helix bundle (5HB) protein mimicking hRSV fusion protein F
Assay: 5HB-based competitive fluorescence polarization (FP) binding assay
Design: species or system human respiratory syncytial virus (hRSV)
Settings: 200 µM peptide; inhibition of Fl-C35 tracer (5 nM) binding to 5HB (20 nM); FP buffer 20 mM PBS pH 7.4, 500 mM NaCl, 0.01% Tween-20, 0.05 mg/ml bovine gamma globulin; 1 h + 30 min at room temperature; ex 485/em 530 nm
Experimental: Competitive FP binding assays of the C20 derivatives were carried out as previously described. Briefly, a 5-helix bundle (5HB) protein was designed to mimic a post-fusion structure of fusion protein F (6-helix bundle) and provide a specific binding site for screening potential human respiratory syncytial virus (hRSV) entry inhibitors. Using a 5HB protein as a target protein and a fluorescently labeled 35 amino acid-long peptide (Fl-C35, sequence shown in Table S1) as a tracer, we performed a competitive FP assay to evaluated the binding affinity of each C20 analogue prepared in this study. In each well of a black 96-well plate (Corning Inc. Lowell, MA, USA), 20 nM of the 5HB with increasing concentrations of each peptomer in FP buffer (20 mM PBS at pH 7.4, 500 mM NaCl, 0.01% (v/v) Tween-20, and 0.05 mg/ml bovine gamma globulin) in a final volume of 185 µL was incubated for 1h at room temperature. Fl-C35 was then added to a final concentration of 5 nM followed by 30 min incubation at room temperature. The FP responses were monitored using a Synergy4 plate reader (Biotek, Winooski, VT, USA) with an excitation wavelength of 485 nm and an emission wavelength of 530 nm. The percentage of inhibition (% Inhibition) was calculated from the equation: % inhibition = 100×[1-(mP-mPf)/(mPb-mPf)]. Unbound Fl-C35 (mPf), bound Fl-C35 (mPb) and the bound inhibitor to the 5HB (mP) are used accordingly.
Sample preparation for FP measurements.

Substance | % Inhibition at 200 µM [%]
ASQVNEKINQSLAFIRKSDE [Peptide A1, alanine-substituted C20 peptide] | 15.45
IAQVNEKINQSLAFIRKSDE [Peptide A2, alanine-substituted C20 peptide] | 23.63
IPQVNEKINQSLAFIRKSDE [Peptide P2, proline-substituted C20 peptide] | 23.15
ISAVNEKINQSLAFIRKSDE [Peptide A3, alanine-substituted C20 peptide] | 27.27
ISPVNEKINQSLAFIRKSDE [Peptide P3, proline-substituted C20 peptide] | 14.81
ISQANEKINQSLAFIRKSDE [Peptide A4, alanine-substituted C20 peptide] | 40.00
ISQPNEKINQSLAFIRKSDE [Peptide P4, proline-substituted C20 peptide] | 12.96
ISQVAEKINQSLAFIRKSDE [Peptide A5, alanine-substituted C20 peptide] | 25.90
ISQVNAKINQSLAFIRKSDE [Peptide A6, alanine-substituted C20 peptide] | 89.09
ISQVNEAINQSLAFIRKSDE [Peptide A7, alanine-substituted C20 peptide] | 100.00
ISQVNEKANQSLAFIRKSDE [Peptide A8, alanine-substituted C20 peptide] | 13.63
ISQVNEKIAQSLAFIRKSDE [Peptide A9, alanine-substituted C20 peptide] | 30.90
ISQVNEKINASLAFIRKSDE [Peptide A10, alanine-substituted C20 peptide] | 11.36
ISQVNEKINPSLAFIRKSDE [Peptide P10, proline-substituted C20 peptide] | 9.26
ISQVNEKINQALAFIRKSDE [Peptide A11, alanine-substituted C20 peptide] | 33.18
ISQVNEKINQPLAFIRKSDE [Peptide P11, proline-substituted C20 peptide] | 9.26
ISQVNEKINQSAAFIRKSDE [Peptide A12, alanine-substituted C20 peptide] | 43.63
ISQVNEKINQSLAAIRKSDE [Peptide A14, alanine-substituted C20 peptide] | 25.00
ISQVNEKINQSLAFARKSDE [Peptide A15, alanine-substituted C20 peptide] | 21.36
ISQVNEKINQSLAFIAKSDE [Peptide A16, alanine-substituted C20 peptide] | 53.63

Substance | % Inhibition at 200 µM [%]
ISQVNEKINQSLAFIPKSDE [Peptide P16, proline-substituted C20 peptide] | 4.63
ISQVNEKINQSLAFIRASDE [Peptide A17, alanine-substituted C20 peptide] | 100.00
ISQVNEKINQSLAFIRKADE [Peptide A18, alanine-substituted C20 peptide] | 36.81
ISQVNEKINQSLAFIRKPDE [Peptide P18, proline-substituted C20 peptide] | 0.93
ISQVNEKINQSLAFIRKSAE [Peptide A19, alanine-substituted C20 peptide] | 31.81
ISQVNEKINQSLAFIRKSDA [Peptide A20, alanine-substituted C20 peptide] | 29.09
ISQVNEKINQSLAFIRKSDE [Peptide A13, alanine scan entry for position 13] | 100.00
ISQVNEKINQSLAFIRKSDE [Peptide C20, 20 amino acid-long peptide derived from the 6th helix of hRSV fusion protein F] | 100
ISQVNEKINQSLAFIRKSDP [Peptide P20, proline-substituted C20 peptide] | 31.48
ISQVNEKINQSLAFIRKSD[Sar] [Sar20, sarcosine-substituted C20 peptide] | 100.00
ISQVNEKINQSLAFIRKSPE [Peptide P19, proline-substituted C20 peptide] | 84.26
ISQVNEKINQSLAFIRKS[Sar]E [Sar19, sarcosine-substituted C20 peptide] | 59.26
ISQVNEKINQSLAFIRK[Sar]DE [Sar18, sarcosine-substituted C20 peptide] | 21.30
ISQVNEKINQSLAFIRPSDE [Peptide P17, proline-substituted C20 peptide] | 6.48
ISQVNEKINQSLAFIR[Sar]SDE [Sar17, sarcosine-substituted C20 peptide] | 84.26
ISQVNEKINQSLAFI[Sar]KSDE [Sar16, sarcosine-substituted C20 peptide] | 0.00
ISQVNEKINQSLAFPRKSDE [Peptide P15, proline-substituted C20 peptide] | 4.63
ISQVNEKINQSLAF[Sar]RKSDE [Sar15, sarcosine-substituted C20 peptide] | 30.56
ISQVNEKINQSLAPIRKSDE [Peptide P14, proline-substituted C20 peptide] | 13.89
ISQVNEKINQSLA[Sar]IRKSDE [Sar14, sarcosine-substituted C20 peptide] | 4.63

Substance | % Inhibition at 200 µM [%]
ISQVNEKINQSLPFIRKSDE [Peptide P13, proline-substituted C20 peptide] | 10.19
ISQVNEKINQSL[Sar]FIRKSDE [Sar13, sarcosine-substituted C20 peptide] | 4.63
ISQVNEKINQSPAFIRKSDE [Peptide P12, proline-substituted C20 peptide] | 22.22
ISQVNEKINQS[Sar]AFIRKSDE [Sar12, sarcosine-substituted C20 peptide] | 7.41
ISQVNEKINQ[Sar]LAFIRKSDE [Sar11, sarcosine-substituted C20 peptide] | 13.89
ISQVNEKIN[Sar]SLAFIRKSDE [Sar10, sarcosine-substituted C20 peptide] | 21.30
ISQVNEKIPQSLAFIRKSDE [Peptide P9, proline-substituted C20 peptide] | 33.33
ISQVNEKI[Sar]QSLAFIRKSDE [Sar9, sarcosine-substituted C20 peptide] | 13.89
ISQVNEKPNQSLAFIRKSDE [Peptide P8, proline-substituted C20 peptide] | 11.11
ISQVNEK[Sar]NQSLAFIRKSDE [Sar8, sarcosine-substituted C20 peptide] | 26.85
ISQVNE[Sar]INQSLAFIRKSDE [Sar7, sarcosine-substituted C20 peptide] | 100.00
ISQVNPKINQSLAFIRKSDE [Peptide P6, proline-substituted C20 peptide] | 26.85
ISQVN[Sar]KINQSLAFIRKSDE [Sar6, sarcosine-substituted C20 peptide] | 108.33
ISQVPEKINQSLAFIRKSDE [Peptide P5, proline-substituted C20 peptide] | 34.26
ISQV[Sar]EKINQSLAFIRKSDE [Sar5, sarcosine-substituted C20 peptide] | 23.15
ISQ[Sar]NEKINQSLAFIRKSDE [Sar4, sarcosine-substituted C20 peptide] | 1.85
IS[Sar]VNEKINQSLAFIRKSDE [Sar3, sarcosine-substituted C20 peptide] | 11.11
I[Sar]QVNEKINQSLAFIRKSDE [Sar2, sarcosine-substituted C20 peptide] | 22.22
PSQVNEKINQSLAFIRKSDE [Peptide P1, proline-substituted C20 peptide] | 26.85
